For twelve molecules, IC50 results are on record in patent US10385007B2, “Monamine and monoamine derivatives as inhibitors of leukotriene A4 hydrolase” (Celtaxsys, Inc., priority 2016, dated 2019).

Test [1] deals with T1, recombinant human LTA4 hydrolase (Homo sapiens, UniProt P09960).
T1 sequence (P09960 1-611): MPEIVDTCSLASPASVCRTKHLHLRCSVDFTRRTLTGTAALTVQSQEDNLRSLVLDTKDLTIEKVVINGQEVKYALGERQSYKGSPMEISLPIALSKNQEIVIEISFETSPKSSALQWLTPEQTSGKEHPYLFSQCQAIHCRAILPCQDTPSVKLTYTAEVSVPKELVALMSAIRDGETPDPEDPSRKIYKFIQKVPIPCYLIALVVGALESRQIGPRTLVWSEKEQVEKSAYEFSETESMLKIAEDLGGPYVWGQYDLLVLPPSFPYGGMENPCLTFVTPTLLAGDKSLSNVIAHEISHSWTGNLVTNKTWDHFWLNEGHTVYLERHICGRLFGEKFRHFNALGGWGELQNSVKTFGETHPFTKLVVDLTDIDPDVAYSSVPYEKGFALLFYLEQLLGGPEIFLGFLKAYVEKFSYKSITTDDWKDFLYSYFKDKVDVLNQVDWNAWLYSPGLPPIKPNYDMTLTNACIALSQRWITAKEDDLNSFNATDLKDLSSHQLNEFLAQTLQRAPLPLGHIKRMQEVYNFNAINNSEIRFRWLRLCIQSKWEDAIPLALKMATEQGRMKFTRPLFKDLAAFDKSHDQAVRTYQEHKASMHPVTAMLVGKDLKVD
The test can be described thus: LTA4 hydrolase homogeneous time resolved fluorescence (HTRF) assay. The test is classed as biochemical. The method, then: Compounds of the invention were tested in the LTA4 hydrolase homogeneous time resolved fluorescence (HTRF) assay to determine their ability to inhibit the hydrolysis of LTA4 to LTB4. The assay analyzes the amount of LTB4 produced.
LTA4 HTRF assay is a two-step assay involving enzymatic conversion of LTA4 to LTB4, and subsequent quantification of LTB4, product with HTRF assay.
The enzymatic conversion of LTA4 to LTB4 was performed in 384-well plates at ambient temperature in a reaction mixture containing 50 mM HEPES (pH 7.5), 0.5% BSA (fatty acid free), 18 nM recombinant human LTA4 hydrolase, 150 nM LTA4, 1% DMSO in the absence or presence of a compound of the invention. Reaction was stopped after 10 minutes incubation by diluting the incubation mixture 10-fold in 50 mM phosphate, 0.1% casein buffer (pH 7.0).
LTB4 formed was quantified with the HTRF assay in which free LTB4 competes with LTB4-XL665 conjugate (acceptor) for anti-LTB4 monoclonal antibody labeled with Europium cryptate (donor), thereby inhibiting the fluorescence energy transfer.
The LTB4 HTRF 384-well assay was carried out by incubating LTB4 samples or standards with LTB4-XL665 conjugate (7.5 ng/well) and anti-LTB4 monoclonal antibody-Europium cryptate conjugate (0.5 ng/well) in 50 mM phosphate, 0.4 M KF and 0.1% casein, buffer (pH 7.0) for two hours at ambient temperature. Plates were read in a RubyStar plate reader (BmG Labtechnologies Inc., NC) simultaneously at 620 nm and 665 nm to obtain signal ratios of 665 nm/620 nm. Results of energy transfer were expressed as delta F (%) which equaled [(signal ratio of sample-signal ratio of negative control)/(signal ratio of negative control)]×100%. Negative controls were control samples without LTB4 or LTB4-XL665.
Sample LTB4 concentrations were calculated from the LTB4 standard curve using the 4-parameter fit equation. For determination IC50 values for a particular compound of the invention, eight serially diluted compound concentrations (at 1:3.16 dilution) were used in this assay. Controls without a compound of the invention or with a reference compound were run parallel in the same assay plate.

Test [2] deals with T2, LTA4 hydrolase peptidase activity (Homo sapiens, UniProt P09960).
T2 sequence (P09960 1-611): T1 sequence (P09960 1-611)
The test can be described thus: Peptidase assay (hydrolysis of L-alanine-p-nitroanilide). Particulars: 29 nM enzyme, 1 mM L-alanine-p-nitroanilide, 1 hour. The format is biochemical. The method, then: Inhibition of peptidase activity was measured for the compounds of the invention by using methods similar to those described in Kull, F. et al., The Journal of Biological Chemistry 1999, 274 (49): 34683-34690.
In brief, the enzyme (29 nM) was incubated with L-alanine-p-nitroanilide (1 mM) in 50 mM HEPES (pH 7.5), 100 mM KCL, 1% DMSO in the absence or presence of a compound of the invention for 1 hour at ambient temperature. Reaction was terminated by addition of acetic acid (1%). Formation of colored nitro-aniline was measured by the increase in absorbance at 405 nm in a Victor 2 plate reader (Wallac). Spontaneous hydrolysis of the substrate was corrected for by subtracting the absorbance of control incubations without enzyme.

The subject of test [3] is LTB4 production in human whole blood. Put plainly: Whole blood assay (LTB4 release upon calcium ionophore, ELISA), human. The format is cell-based. Particulars: production of LTB4 in whole blood, calcium ionophore stimulation. Here is the method: Compounds of the invention were tested for their ability as inhibitors of LTA4 hydrolase in a whole blood assay using human, mouse, rat or dog whole blood in a manner similar to that described in Penning, T. D. et al., J. Med. Chem. (2000), 43(4): 721-735. In this assay, compounds were tested for their ability to inhibit LTB4 release upon stimulation with calcium ionophore. The LTB4 levels in supernatants were measured by ELISA.
(An ELISA detects its analyte on a solid surface through an enzyme-linked reagent.)

[4] abbreviates: inhibition of LTA4 to LTB4 hydrolysis, 18 nM enzyme, 150 nM LTA4, 10 minutes, read-out: Hydrolase IC50.

Where two headings read alike, the source gives them in different places.

In general, IC50 refers to the point on the concentration scale where inhibition reaches its midpoint. For the molecule `CN(CCOc1ccc(Cc2ccccc2)cc1)Cc1ccccc1Oc1ccc(C(=O)O)cc1` [Example 4, [N-2-(4-benzylphenoxy)ethyl]-N-methyl-(2-aminomethylphenoxy)-4-benzoic acid], the IC50 in test [1] (setting [4]) amounted to 100 nM; in test [2], 32 nM; in test [3], 370 nM.
For the molecule `NCc1ccc(Oc2ccc(Cc3ccccc3)cc2)cc1` [Example 5, 4-(4-benzylphenoxy)benzylamine], the figures for the IC50 in test [1] (setting [4]) and in test [3] were 270 nM and 150 nM, respectively.
Taken in the same sequence, the figures for `COC(=O)C(N)Cc1ccc(Oc2ccc(Cc3ccccc3)cc2)cc1` (stereo not shown) [Example 8, methyl 3-[4-(4-benzylphenoxy)phenyl]-2-aminopropanoate] were 120 nM and 790 nM.
Regarding `CN(CCOc1ccc(Cc2ccccc2)cc1)Cc1ccccc1Oc1cccc(C(=O)O)c1` [Example 12], the IC50 in test [1] (setting [4]) was determined as 15 nM; in test [2], 23 nM; in test [3] it was 150 nM.
As to `NCCc1ccc(OCc2ccc(-c3ccccc3)cc2)cc1` [Example 2, (4-phenylphenyl-1-methoxy)-4-phenylethylamine], the IC50 in test [1] was 41 nM; in test [3], 47 nM.
For `NCc1ccc(OCc2ccc(-c3ccccc3)cc2)cc1` [Example 1, 1-(4-phenylphenyl-1-methoxy)-4-aminomethylbenzene], the half-inhibitory concentration (IC50) in test [1] (setting [4]) came out at 300 nM.
Regarding `CCOC(=O)C(N)Cc1ccc(Oc2ccc(Cc3ccccc3)cc2)cc1` (stereo not shown) [Example 9, ethyl 3-[4-(4-benzylphenoxy)phenyl]-2-aminopropanoate], the results for the IC50 in test [1] (setting [4]) and in test [3] were 130 nM and 350 nM, respectively.
For `CN(CCOc1ccc(Cc2ccccc2)cc1)Cc1ccc(C(=O)O)cc1` [Example 6, [N-2-(4-benzylphenoxy)ethyl]-N-methyl-aminomethyl-4-benzoic acid] the same measures were 21 nM and 310 nM.
Take `NCc1cccnc1NCCOc1ccc(Cc2ccccc2)cc1` [Example 11, 2-(4-benzylphenoxy)ethylamino-3-aminomethylpyridine]: the IC50 in test [1] (setting [4]) was 300 nM; in test [2], 180 nM.
With `NC(Cc1ccc(Oc2ccc(Cc3ccccc3)cc2)cc1)C(=O)O` (stereo not shown) [Example 7, 3-[4-(4-benzylphenoxy)phenyl]-2-aminopropanoic acid], the figures for the 50% inhibitory concentration (IC50) in test [1] (setting [4]) and in test [3] were 84 nM and 880 nM, respectively.
Take `NC(CO)Cc1ccc(Oc2ccc(Cc3ccccc3)cc2)cc1` (stereo not shown) [Example 10, 3-[4-(4-benzylphenoxy)phenyl]-2-aminopropanol]: the IC50 in test [1] (setting [4]) turned out to be 260 nM; in test [3], 910 nM.
Consider `NCCc1ccc(Oc2ccc(Cc3ccccc3)cc2)cc1` [Example 3, 4-benzylphenoxy-4-phenylethylamine], for which the IC50 was 44 nM in test [1] and 89 nM in test [3].
